Reference: PubChem BioAssay (NCI)
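How tested: cells in 96-well plates exposed to compound for 48 hours at five concentrations. The concentration for 50% growth inhibition is given as GI50. At the TGI there is no net growth.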

Legend:
Assay in all cases: growth of human tumour cells (NCI), 48 h
NCI-H23 lung = tested on: NCI-H23 lung
OVCAR-3 ovarian = tested on: OVCAR-3 ovarian
SNB-19 CNS = tested on: SNB-19 CNS
A549 NSCLC = tested on: A549 NSCLC
SK-MEL-28 melanoma = tested on: SK-MEL-28 melanoma
K-562 leukemia = tested on: K-562 leukemia
SN12C renal = tested on: SN12C renal
HCT-15 colon = tested on: HCT-15 colon
HS 578T breast = tested on: HS 578T breast
BT-549 breast = tested on: BT-549 breast
UO-31 renal = tested on: UO-31 renal
MCF7 breast = tested on: MCF7 breast
U251 CNS = tested on: U251 CNS
HOP-62 NSCLC = tested on: HOP-62 NSCLC
HCC-2998 colon = tested on: HCC-2998 colon
HOP-92 NSCLC = tested on: HOP-92 NSCLC
RXF 393 renal = tested on: RXF 393 renal
MDA-MB-468 breast = tested on: MDA-MB-468 breast
T-47D breast = tested on: T-47D breast
TK-10 renal = tested on: TK-10 renal
A498 renal = tested on: A498 renal
SR leukemia = tested on: SR leukemia
HL-60(TB) leukemia = tested on: HL-60(TB) leukemia
SK-MEL-2 melanoma = tested on: SK-MEL-2 melanoma
MDA-MB-231 breast = tested on: MDA-MB-231 breast
OVCAR-8 ovarian = tested on: OVCAR-8 ovarian
UACC-62 melanoma = tested on: UACC-62 melanoma
CCRF-CEM leukemia = tested on: CCRF-CEM leukemia
786-0 renal = tested on: 786-0 renal
SF-539 CNS = tested on: SF-539 CNS
NCI-H226 lung = tested on: NCI-H226 lung
OVCAR-5 ovarian = tested on: OVCAR-5 ovarian
NCI-H460 lung = tested on: NCI-H460 lung
EKVX NSCLC = tested on: EKVX NSCLC
SW-620 colon = tested on: SW-620 colon
CAKI-1 renal = tested on: CAKI-1 renal
MALME-3M melanoma = tested on: MALME-3M melanoma
OVCAR-4 ovarian = tested on: OVCAR-4 ovarian
ACHN renal = tested on: ACHN renal
NCI-H522 lung = tested on: NCI-H522 lung
SK-MEL-5 melanoma = tested on: SK-MEL-5 melanoma
SNB-75 CNS = tested on: SNB-75 CNS
HT29 colon = tested on: HT29 colon
RPMI-8226 leukemia = tested on: RPMI-8226 leukemia
MOLT-4 leukemia = tested on: MOLT-4 leukemia
SK-OV-3 ovarian = tested on: SK-OV-3 ovarian
IGROV1 ovarian = tested on: IGROV1 ovarian
M14 melanoma = tested on: M14 melanoma
SF-295 CNS = tested on: SF-295 CNS
PC-3 prostate = tested on: PC-3 prostate
UACC-257 melanoma = tested on: UACC-257 melanoma
DU-145 prostate = tested on: DU-145 prostate
SF-268 CNS = tested on: SF-268 CNS
HCT-116 colon = tested on: HCT-116 colon
COLO 205 colon = tested on: COLO 205 colon
NCI/ADR-RES ovarian = tested on: NCI/ADR-RES ovarian

For O=C(Nc1ccc(OCC(=O)c2ccccc2)cc1)Nc1ccc(Cl)c(C(F)(F)F)c1, the GI50 (NCI-H23 lung) was 3.28 µM, the TGI (NCI-H23 lung) was 48.9 µM and the GI50 (OVCAR-3 ovarian) was 2.76 µM. The TGI (OVCAR-3 ovarian) was > 100 µM, the GI50 (SNB-19 CNS) was 3.16 µM and the TGI (SNB-19 CNS) was > 100 µM. For the same compound, the GI50 (A549 NSCLC) was 3.64 µM, the TGI (A549 NSCLC) was > 100 µM and the GI50 (SK-MEL-28 melanoma) was 2.97 µM. The TGI (SK-MEL-28 melanoma) was 25.8 µM, the GI50 (K-562 leukemia) was 3.66 µM and the TGI (K-562 leukemia) was > 100 µM. For the same compound, the GI50 (SN12C renal) was 3.18 µM, the TGI (SN12C renal) was > 100 µM and the GI50 (HCT-15 colon) was 2.92 µM. For the same compound, the TGI (HCT-15 colon) was > 100 µM, the GI50 (HS 578T breast) was 3.51 µM and the TGI (HS 578T breast) was 31.1 µM. The GI50 (BT-549 breast) was 11.5 µM, the TGI (BT-549 breast) was > 100 µM and the GI50 (UO-31 renal) was 3.18 µM. For the same compound, the TGI (UO-31 renal) was > 100 µM, the GI50 (MCF7 breast) was 3.37 µM and the TGI (MCF7 breast) was > 100 µM. The GI50 (U251 CNS) was 2.95 µM, the TGI (U251 CNS) was 12.8 µM and the GI50 (HOP-62 NSCLC) was 5.76 µM. For the same compound, the TGI (HOP-62 NSCLC) was 35.2 µM, the GI50 (HCC-2998 colon) was 3.37 µM and the TGI (HCC-2998 colon) was > 100 µM. The GI50 (HOP-92 NSCLC) was 3.48 µM, the TGI (HOP-92 NSCLC) was 17.5 µM and the GI50 (RXF 393 renal) was 2.78 µM. The TGI (RXF 393 renal) was 14.3 µM, the GI50 (MDA-MB-468 breast) was 2.41 µM and the TGI (MDA-MB-468 breast) was 7.05 µM. For the same compound, the GI50 (T-47D breast) was 3.13 µM, the TGI (T-47D breast) was > 100 µM and the GI50 (TK-10 renal) was 6.25 µM. It also gave a TGI (TK-10 renal) of 40.3 µM, a GI50 (A498 renal) of 3.59 µM and a TGI (A498 renal) of 18.2 µM. For the same compound, the GI50 (SR leukemia) was 2.52 µM, the TGI (SR leukemia) was > 100 µM and the GI50 (HL-60(TB) leukemia) was 3 µM. It also gave a TGI (HL-60(TB) leukemia) of 40.2 µM, a GI50 (SK-MEL-2 melanoma) of 2.07 µM and a TGI (SK-MEL-2 melanoma) of 4.8 µM. The GI50 (MDA-MB-231 breast) was 2.87 µM, the TGI (MDA-MB-231 breast) was 11.4 µM and the GI50 (OVCAR-8 ovarian) was 4.31 µM. For the same compound, the TGI (OVCAR-8 ovarian) was > 100 µM, the GI50 (UACC-62 melanoma) was 2.26 µM and the TGI (UACC-62 melanoma) was 6.2 µM. The GI50 (CCRF-CEM leukemia) was 3.54 µM, the TGI (CCRF-CEM leukemia) was > 100 µM and the GI50 (786-0 renal) was 4.12 µM. It also gave a TGI (786-0 renal) of 32.5 µM, a GI50 (SF-539 CNS) of 3.28 µM and a TGI (SF-539 CNS) of 12.8 µM. The GI50 (NCI-H226 lung) was 3.73 µM, the TGI (NCI-H226 lung) was > 100 µM and the GI50 (OVCAR-5 ovarian) was 5.28 µM. The TGI (OVCAR-5 ovarian) was > 100 µM, the GI50 (NCI-H460 lung) was 3.07 µM and the TGI (NCI-H460 lung) was > 100 µM. For the same compound, the GI50 (EKVX NSCLC) was 3.26 µM, the TGI (EKVX NSCLC) was > 100 µM and the GI50 (SW-620 colon) was 3.74 µM. For the same compound, the TGI (SW-620 colon) was > 100 µM, the GI50 (CAKI-1 renal) was 3.31 µM and the TGI (CAKI-1 renal) was > 100 µM. For the same compound, the GI50 (MALME-3M melanoma) was 3.11 µM, the TGI (MALME-3M melanoma) was > 100 µM and the GI50 (OVCAR-4 ovarian) was 4.39 µM. The TGI (OVCAR-4 ovarian) was > 100 µM, the GI50 (ACHN renal) was 3.17 µM and the TGI (ACHN renal) was > 100 µM. It also gave a GI50 (NCI-H522 lung) of 1.96 µM, a TGI (NCI-H522 lung) of 6.15 µM and a GI50 (SK-MEL-5 melanoma) of 2.87 µM. It also gave a TGI (SK-MEL-5 melanoma) of 9.54 µM, a GI50 (SNB-75 CNS) of 2.27 µM and a TGI (SNB-75 CNS) of 19.9 µM. For the same compound, the GI50 (HT29 colon) was 3.34 µM, the TGI (HT29 colon) was > 100 µM and the GI50 (RPMI-8226 leukemia) was 3.51 µM. The TGI (RPMI-8226 leukemia) was > 100 µM, the GI50 (MOLT-4 leukemia) was 2.48 µM and the TGI (MOLT-4 leukemia) was > 100 µM. The GI50 (SK-OV-3 ovarian) was 8.74 µM, the TGI (SK-OV-3 ovarian) was 60.7 µM and the GI50 (IGROV1 ovarian) was 4.38 µM. For the same compound, the TGI (IGROV1 ovarian) was > 100 µM, the GI50 (M14 melanoma) was 2.97 µM and the TGI (M14 melanoma) was > 100 µM. It also gave a GI50 (SF-295 CNS) of 2.74 µM, a TGI (SF-295 CNS) of 13.5 µM and a GI50 (PC-3 prostate) of 2.83 µM. For the same compound, the TGI (PC-3 prostate) was > 100 µM, the GI50 (UACC-257 melanoma) was 3.78 µM and the TGI (UACC-257 melanoma) was > 100 µM. The GI50 (DU-145 prostate) was 6.81 µM, the TGI (DU-145 prostate) was > 100 µM and the GI50 (SF-268 CNS) was 3.51 µM. The TGI (SF-268 CNS) was > 100 µM, the GI50 (HCT-116 colon) was 3.69 µM and the TGI (HCT-116 colon) was > 100 µM. The GI50 (COLO 205 colon) was 4.32 µM, the TGI (COLO 205 colon) was > 100 µM and the GI50 (NCI/ADR-RES ovarian) was 3.45 µM. For the same compound, the TGI (NCI/ADR-RES ovarian) was > 100 µM.
